The target of test [1] is T1, NMDA receptor (N-methyl-D-aspartate) (Rattus norvegicus, UniProt P35439).
T1 construct: isolated membrane material from rat cerebra; from tissue; host or cells: rat cerebrum, washed membranes
The test is described as follows: Binding of 3H-5,7-dichlorokynurenic acid (displacement from rat cerebral membranes). The note with it: buffer pH 7.4, on ice 30 minutes. The procedure: (§1) The pharmacological activity of the compounds I according to the invention was investigated on isolated membrane material from rat cerebra. To do this, the membrane material was treated in the presence of the compounds according to the invention with the radiolabeled substances ^3 H-2-amino-3-hydroxy-5-methyl-4-isoxazolepropionic acid (^3 H-AMPA) and ^3 H-5,7-dichlorokynurenic acid, the latter binding to specific receptors (AMPA receptor and NMDA receptor (N-methyl-D-aspartate)respectively). The radioactivity of the treated membranes was subsequently measured by scintillation counting. The amounts of bound ^3 H-AMPA and ^3 H-5,7-dichlorokynurenic acid, or in each case the amounts of these radiolabeled substances displaced, were determined from the bound radioactivity. The dissociation constant KI (I=inhibitor) resulting from this, which is a measure of the displacing effect of the agent according to the invention, was found by iterative nonlinear regression analysis using the Statistical Analysis System (SAS) on an IBM computer, similar to the Ligand program of P. J. Munson or D. Rodbard (Analytical Biochem. 107, 220 (1980), Ligand: Versatile Computerized Approach for Characterization of Ligand Binding Systems).
2. Binding of ^3 H-5,7-dichlorokynurenic acid
To prepare the membrane material, freshly removed rat cerebra were homogenized together with about 10 times the volume of a buffer solution A' composed of 50 mM TRIS-HCl and 10 mM EDTA, pH 7.4. The suspension was centrifuged at 48,000 g for 20 minutes. After removal of the supernatant liquid, the membrane material present in the sediment was washed twice by suspension in buffer solution A' and subsequent centrifugation for 20 minutes each time and suspension. After resuspension of the membranes in buffer solution A' and freezing in liquid nitrogen, the suspension was thawed again at 37° C. and, after another wash step, incubated at 37° C. for 15 minutes. The protein material was subsequently washed by centrifugation and suspension four times and was stored at -70° C. until used.
For the binding assay, the protein material was thawed at 37° C. and washed twice by centrifugation at 48,000 g (20 minutes) followed by suspension in a buffer solution B' composed of 50 mM TRIS-HCl, pH 7.4. Subsequently 0.15 mg of membrane material, 0.3 μCi of ^3 H-5,7-dichlorokynurenic acid (16 Ci/mmol) and compound I were dissolved in 1 ml of buffer solution B' and incubated on ice for 30 minutes. The incubated solution was centrifuged at 150,000 g for 2 minutes. After removal of the supernatant liquid, the sediments were suspended twice in 1.5 ml of cold buffer solution B' each time. After the radioactivity of the ^3 H-5,7-dichlorokynurenic acid bound to the membranes in the sediment had been measured, the KI was found by subjecting the displacement plots to regression analysis.

The target of another test is AMPA receptor. The test is described as follows: Binding of 3H-AMPA (displacement from rat cerebral membranes). The note with it: buffer pH 7.1, on ice 60 minutes. Here is the method:
as §1
1. Binding of ^3 H-2-amino-3-hydroxy-5-methyl-4-isoxanolpropionic acid (^3 H-AMPA)
To prepare the membranes, freshly removed rat cerebra were homogenized together with about 15 times the volume of a buffer solution A composed of 30 mM α,α,α-tris(hydroxymethyl)methylamine hydrochloride (TRIS-HCl) and 0.5 mM ethylenediaminetetraacetic acid (EDTA), pH 7.4, using an Ultra-TURRAX. The suspension was centrifuged at 48,000 g for 20 min. After removal of the supernatant liquid, the proteinaceous membrane material present in the sediment was washed three times by suspension in buffer solution A and subsequent centrifugation at 48,000 g for 20 minutes each time. The membrane material was then suspended in 15 times the volume of buffer solution A and incubated at 37° C. for 30 minutes. The protein material was subsequently washed twice by centrifugation and suspension and stored at -70° C. until used.
For the binding assay, the protein material was thawed at 37° C. and washed twice by centrifugation at 48,000 g (20 minutes) followed by suspension in a buffer solution B composed of 50 mM TRIS-HCl, 0.1 M potassium thiocyanate and 2.5 mM calcium chloride, pH 7.1. Subsequently 0.25 mg of membrane material, 0.1 μCi of ^3 H-AMPA (60 Ci/mmol) and compound I were dissolved in 1 ml of buffer solution B and incubated on ice for 60 minutes. The incubated solution was filtered through a CF/B filter (from Whathman) which had previously been treated with a 0.5% strength aqueous solution of polyethyleneimine for at least 2 hours. The filtrate [sic] was then washed with 5 ml of cold buffer solution B in order to separate bound and free ^3 H-AMPA from one another. After the radioactivity of the bound ^3 H-AMPA in the membrane material had been measured by scintillation counting, the KI was determined by subjecting the displacement plots to regression analysis.

Experimental findings from patent publication US5631261A, “Triazoloquinazolines, their preparation and use” (BASF Aktiengesellschaft, priority 1992, dated 1997) are described below.

On to `O=C(O)CCCc1nc2c3ccc([N+](=O)[O-])cc3[nH]c(=O)n2n1` [Example 13], for which the values for the Ki (in test [1]; at AMPA receptor) were 500 nM and 3400 nM, respectively. Take `O=C(O)CCc1nc2c3ccc4ccccc4c3[nH]c(=O)n2n1` [Example 19]: the Ki in test [1] was 300 nM; at AMPA receptor, 700 nM. For `O=C(O)CCc1nc2c3ccc(C(F)(F)F)cc3[nH]c(=O)n2n1` [Example 18] the same measures were 650 nM and 600 nM. The molecule `COC(=O)CCc1nc2c3cc(C)c(C)cc3[nH]c(=O)n2n1` [Example 4, Methyl 3-(8,9-dimethyl-1,2,4-triazolo[1,5-c]quinazolin-5-on-2)propionate] returned a Ki in test [1] of 1750 nM. That is a single-digit micromolar value.

With `O=C(O)CCc1nc2c3cc4ccccc4cc3[nH]c(=O)n2n1` [Example 20], the Ki in test [1] turned out to be 400 nM; at AMPA receptor, 600 nM. `O=C(O)CCc1nc2c3cc([N+](=O)[O-])c([N+](=O)[O-])cc3[nH]c(=O)n2n1` [Example 15]: the results for the Ki (in test [1]; on AMPA receptor) were 400 nM and 1000 nM, respectively. Consider `Cc1cc2[nH]c(=O)n3nc(CCC(=O)O)nc3c2cc1C` [Example 16], for which, in test [1], the Ki is 100 nM. Same read-out and setting: to `Cc1cc2[nH]c(=O)n3nc(CCC(=O)NCc4ccccc4)nc3c2cc1C` [Example 21, 3-(8,9-Dimethyl-1,2,4-triazolo[1,5-c]quinazolin-5-on-2)propionic acid benzylamide] belongs 800 nM. Regarding `O=C(O)CCc1nc2c3ccc([N+](=O)[O-])cc3[nH]c(=O)n2n1` [Example 14], the Ki in test [1] was found to be 170 nM; at AMPA receptor, 600 nM.
